In patent US20260317304A1, “TEAD INHIBITORS AND METHODS OF USE” (Sporos BioDiscovery, Inc., priority 2022, published 2026) one finds EC50 data, which are given here for five molecules.

Each structure is given as a SMILES string.

By EC50 is commonly meant the concentration giving half of the maximal effect. High values mean a need for much substance, low ones an effect from little substance.

Holding throughout (assay type): cell-based
Test [1] relates to BHY cells. As to the kind of experiment: BHY proliferation and cell viability assay (CTG). The following applies: 144 hours. As for the experimental part:
BHY cells were trypsinised, counted and plated at 2500 cells/well in 200 μl of growth media in 96 well flat bottom tissue culture treated plates. The plated cells were incubated overnight at 37° C., 5% CO2 before being treated with compounds in triplicate for each assay point. 50 μl of the serially diluted compound was added to each well giving a final DMSO concentration of 0.5% per well and a total volume of 250 μl per well. The treated cells were incubated for 144 hours (6 days) at 37° C., 5% CO2. Following compound treatment, the remaining viable cells were detected using the Promega CellTiter-Glo 2.0 assay as follows: 150 μl of media was removed from each of the wells to be assayed and 100 μl of room temperature CellTiter-Glo 2.0 reagent was added. The plate was placed on an orbital shaker at 500 rpm at room temperature for 2 minutes, and then incubated without shaking for a further 10 minutes at room temperature. 150 μl of cell lysate was removed from each well and dispensed into a single well of a white opaque 96 well plate. Luminescence at 545 nm was read using a BMG CLARIOstar plate reader. The luminescent signal was directly proportional to number of viable cells, the percent of viable cells relative to the DMSO control was then calculated for each assay point. Percent viability relative to DMSO control was plotted against compound concentration and a curve fitted with non-linear regression in GraphPad Prism software. EC50 and absolute IC50 values are calculated using GraphPad Prism software as follows: For EC50 values, a non-constrained four-parameter logistic curve fit was used (Sigmoidal, 4PL, X is concentration). For Absolute IC50 values the baseline was constrained to Y=0 and top at 100 (Absolute IC50, X is concentration). Area Under the Curve (AUC): Prism computes area-under-the-curve by the trapezoidal method. The analysis sees a fitted curve as simply a series of connected XY points. Prism simply computes the area under the “curve” defined by connecting the points by straight lines. The units of the AUC are the units of the Y axis times units of the X axis. […]

Test [2] concerns LOU-NH91 cells. Put plainly: LOU-NH91 proliferation and cell viability assay (CTG). Conditions: 216 hours. As for the experimental part:
LOU-NH91 cells were trypsinised, counted and plated at 1000 cells/well in 200 μl of growth media in 96 well flat bottom tissue culture treated plates. The plated cells were incubated overnight at 37° C., 5% CO2 before being treated with compounds in triplicate for each assay point. 50 μl of the serially diluted compound was added to each well giving a final DMSO concentration of 0.5% per well and a total volume of 250 μl per well. The treated cells were incubated for 216 hours (9 days) at 37° C., 5% CO2. Following compound treatment, the remaining viable cells were detected using the Promega CellTiter-Glo 2.0 assay as follows: 150 μl of media was removed from each of the wells to be assayed and 100 μl of room temperature CellTiter-Glo 2.0 reagent was added. The plate was placed on an orbital shaker at 500 rpm at room temperature for 2 minutes, and then incubated without shaking for a further 10 minutes at room temperature. 150 μl of cell lysate was removed from each well and dispensed into a single well of a white opaque 96 well plate. Luminescence at 545 nm was read using a BMG CLARIOstar plate reader. The luminescent signal was directly proportional to number of viable cells, the percent of viable cells relative to the DMSO control was then calculated for each assay point. Percent viability relative to DMSO control was plotted against compound concentration and a curve fitted with non-linear regression in GraphPad Prism software. EC50 and absolute IC50 values were calculated using GraphPad Prism software as follows: For EC50 values a non-constrained four-parameter logistic curve fit was used (Sigmoidal, 4PL, X is concentration). For Absolute IC50 values the baseline was constrained to Y=0 and top at 100 (Absolute IC50, X is concentration). Area Under the Curve (AUC): Prism computes area-under-the-curve by the trapezoidal method. The analysis sees a fitted curve as simply a series of connected XY points. Prism simply computes the area under the “curve” defined by connecting the points by straight lines. The units of the AUC are the units of the Y axis times units of the X axis. […]

For test [3], the system named is Mero14 cells. Put plainly: Mero14 proliferation and cell viability assay (CTG). The following applies: 144 hours. As for the experimental part: Mero14 cells were trypsinised, counted and plated at 400 cells/well in 200 μl of growth media in 96 well flat bottom tissue culture treated plates. The plated cells were incubated overnight at 37° C., 5% CO2 before being treated with compounds in triplicate for each assay point. 50 μl of the serially diluted compound was added to each well giving a final DMSO concentration of 0.5% per well and a total volume of 250 μl per well. The treated cells were incubated for 144 hours (6 days) at 37° C., 5% CO2. Following compound treatment the remaining viable cells were detected using the Promega CellTiter-Glo 2.0 assay as follows: 150 μl of media was removed from each of the wells to be assayed and 100 μl of room temperature CellTiter-Glo 2.0 reagent was added. The plate was placed on an orbital shaker at 500 rpm at room temperature for 2 minutes, and then incubated without shaking for a further 10 minutes at room temperature. 150 μl of cell lysate was removed from each well and dispensed into a single well of a white opaque 96 well plate. Luminescence at 545 nm was read using a BMG CLARIOstar plate reader. The luminescent signal was directly proportional to number of viable cells, the percent of viable cells relative to the DMSO control was then calculated for each assay point. Percent viability relative to DMSO control is plotted against compound concentration and a curve fitted with non-linear regression in GraphPad Prism software. EC50 and absolute IC50 values were calculated using GraphPad Prism software as follows: For EC50 values, a non-constrained four-parameter logistic curve fit was used (Sigmoidal, 4PL, X is concentration). For Absolute IC50 values the baseline was constrained to Y=0 and top at 100 (Absolute IC50, X is concentration). Area Under the Curve (AUC): Prism computed area-under-the-curve by the trapezoidal method. The analysis sees a fitted curve as simply a series of connected XY points. Prism simply computes the area under the “curve” defined by connecting the points by straight lines. The units of the AUC are the units of the Y axis times units of the X axis.
For EC50 data, the symbol “A” indicates a value of less than 0.2 μM; the symbol “B” indicates a value in the range of from 0.2 μM up to 1 μM; and the symbol “C” indicates a value of greater than 1 μM.

On to `Cn1cnc(-c2cc([C@@]3(C)CCNC3=O)ccc2Nc2ccc(C(F)(F)F)cc2)c1` (single isomer, unassigned) [Compound 5, 3-methyl-3-(3-(1-methyl-1H-imidazol-4-yl)-4-((4-(trifluoromethyl)phenyl)amino)phenyl)pyrrolidin-2-one], for which the values for the EC50 in test [1], in test [2] and in test [3] were 200 to 1000 nM, less than 200 nM and less than 200 nM, respectively.
`Cn1cnc(-c2cc(C3(C)NC(=O)NC3=O)ccc2Nc2ccc(C(F)(F)F)cc2)c1` (single isomer, unassigned) [Compound 15, 5-methyl-5-(3-(1-methyl-1H-imidazol-4-yl)-4-((4-(trifluoromethyl)phenyl)amino)phenyl)imidazolidine-2,4-dione] yielded an EC50 in test [3] of less than 200 nM.
In turn, `Cn1nnc(-c2cc([C@]3(C)CCNC3=O)ccc2Nc2ccc(C(F)(F)F)cc2)n1` (stereo in doubt) [Compound 20, 3-methyl-3-(3-(2-methyl-2H-tetrazol-5-yl)-4-((4-(trifluoromethyl)phenyl)amino)phenyl) pyrrolidin-2-one] returned an EC50 in test [3] of less than 200 nM.
`FC(F)(F)c1ccc(CN2CCC(C3CC(Br)=NO3)CC2)cc1` (centres unmarked) [Compound 1-2, reference compound]: the half-maximal effective concentration (EC50) in test [1] was more than 1000 nM; in test [2] it was less than 200 nM; in test [3], 200 to 1000 nM.
The matching figures for `C=CC(=O)Nc1ccc(C)c(Oc2ccc(Cl)cc2)c1` [Compound 1-3, reference compound]: less than 200 nM, less than 200 nM and less than 200 nM.
